Consider 98 molecules from ChEMBL document CHEMBL3882725, “Indazole derivatives as JNK inhibitors and compositions and methods related thereto” (2002).

The target in this assay is Mitogen-activated protein kinase 9 (Homo sapiens, UniProt P45984). In words: Inhibition of His6-tagged JNK2 (unknown origin) assessed as reduction in c-Jun phosphorylation using GST-c-Jun (1 to 79 residues) and [gamma32P]ATP incubated for 1 hr by scintillation counting assay.
Sequence of Mitogen-activated protein kinase 9 (P45984 whole entry, the tested form may be a part): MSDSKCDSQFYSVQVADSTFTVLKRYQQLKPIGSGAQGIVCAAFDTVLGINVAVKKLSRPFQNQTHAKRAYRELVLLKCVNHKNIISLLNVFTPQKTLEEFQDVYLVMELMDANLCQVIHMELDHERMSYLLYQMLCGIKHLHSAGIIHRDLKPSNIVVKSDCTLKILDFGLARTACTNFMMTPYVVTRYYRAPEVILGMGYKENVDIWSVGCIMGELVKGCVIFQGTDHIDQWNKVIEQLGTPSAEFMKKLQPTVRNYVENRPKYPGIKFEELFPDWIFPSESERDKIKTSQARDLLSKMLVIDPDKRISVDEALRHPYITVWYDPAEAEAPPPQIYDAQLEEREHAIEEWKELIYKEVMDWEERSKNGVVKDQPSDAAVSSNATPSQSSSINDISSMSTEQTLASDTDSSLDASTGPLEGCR
In the case of `CN(C)C(=O)c1ccc2[nH]nc(-c3ccc(F)cc3)c2c1`, the IC50 (in general, the concentration at which inhibition is half-maximal) is not above 10 µM. The figure for `COc1ccc(-c2n[nH]c3ccc(NC(=O)c4ccc(C(=O)O)cc4)cc23)cc1` is 1 to 10 µM; for `Oc1ccc2[nH]nc(-c3ccccc3)c2c1` it is 1 to 10 µM. With `Fc1ccc(-c2n[nH]c3ccc(-c4cc[nH]n4)cc23)cc1` the figure was 1 to 10 µM; with `Nc1ccc2[nH]nc(-c3ccccc3)c2c1`, not above 10 µM. The figure for `NC(=O)CCCNC(=O)c1ccc2[nH]nc(-c3ccc(F)cc3)c2c1` is 1 to 10 µM; for `COc1ccccc1C(=O)Nc1ccc2[nH]nc(-c3ccc(F)cc3)c2c1` it is not above 10 µM. For `Fc1ccc(-c2n[nH]c3ccc(NCc4cccnc4)cc23)cc1`, the IC50 is not above 10 µM. The figure for `O=C(Nc1ccc2[nH]nc(-c3ccc(F)cc3)c2c1)c1ccccc1O` is 1 to 10 µM. With `Cc1ccccc1C(=O)Nc1ccc2[nH]nc(-c3ccc(F)cc3)c2c1` the figure was 1 to 10 µM. Turning to `Fc1ccc(-c2n[nH]c3ccc(-c4nc5ccccc5[nH]4)cc23)cc1`, the IC50 was not above 10 µM.

As to `CNC(=O)c1ccc2[nH]nc(-c3ccc(F)cc3)c2c1`, the IC50 was 1 to 10 µM. With `O=C(c1ccc2[nH]nc(-c3ccc(F)cc3)c2c1)N1CCNCC1` the figure was not above 10 µM; with `COc1ccc(-c2n[nH]c3ccc(N)cc23)cc1`, not above 10 µM; with `CCOC(=O)c1ccc2[nH]nc(-c3ccc(F)cc3)c2c1`, 1 to 10 µM. With `O=C(O)Cc1ccc(NC(=O)c2ccc3[nH]nc(-c4ccc(F)cc4)c3c2)cc1`, the half-maximal inhibitory concentration (IC50) lay within 1 to 10 µM. As for `CN(C)CCNC(=O)c1ccc2[nH]nc(-c3ccc(F)cc3)c2c1`, the IC50 is not above 10 µM. In the case of `Nc1ccc2[nH]nc(-c3cccc(C(F)(F)F)c3)c2c1`, the IC50 was not above 10 µM. For `CC(C)(C)OC(=O)NNC(=O)c1ccc2[nH]nc(-c3ccc(F)cc3)c2c1`, the IC50 lay within 1 to 10 µM. The figure for `O=C(Nc1cccnc1)c1ccc2[nH]nc(-c3ccc(F)cc3)c2c1` is 1 to 10 µM; for `O=C(NCc1ccncc1)c1ccc2[nH]nc(-c3ccc(F)cc3)c2c1` it is 1 to 10 µM; for `NC(=O)c1ccc(NC(=O)c2ccc3[nH]nc(-c4ccc(F)cc4)c3c2)cc1` it is 1 to 10 µM. Regarding `COC(=O)c1ccc(C(=O)Nc2ccc3[nH]nc(-c4ccc(F)cc4)c3c2)cc1`, the IC50 is not above 10 µM. The figure for `CC(C)c1n[nH]c(-c2ccc3[nH]nc(-c4ccc(F)cc4)c3c2)n1` is 0.5 to 10 µM. As to `O=S(=O)(Nc1ccc2[nH]nc(-c3ccc(F)cc3)c2c1)c1ccccc1`, the IC50 was not above 10 µM.

`O=C(c1ccc2[nH]nc(-c3ccc(F)cc3)c2c1)N1CCCC1`: the IC50 was not above 10 µM. In the case of `O=C(Nc1ccccc1)c1ccc2[nH]nc(-c3ccc(F)cc3)c2c1`, the IC50 is not above 10 µM. The figure for `FC(F)(F)c1ccc2[nH]nc(-c3ccccc3)c2c1` is not above 10 µM. The figure for `O=C(NCc1ccccn1)c1ccc2[nH]nc(-c3ccc(F)cc3)c2c1` is 1 to 10 µM; for `O=C(Nc1ccncc1)c1ccc2[nH]nc(-c3ccc(F)cc3)c2c1` it is 1 to 10 µM. The figure for `O=C(Nc1ccc2[nH]nc(-c3ccc(F)cc3)c2c1)c1cccs1` is 1 to 10 µM; for `O=C(O)CCCNC(=O)c1ccc2[nH]nc(-c3ccc(F)cc3)c2c1` it is 1 to 10 µM. With `O=C(NO)c1ccc2[nH]nc(-c3ccc(F)cc3)c2c1`, the IC50 fell in the range of 1 to 10 µM. With `O=C(O)c1ccc(C(=O)Nc2ccc3[nH]nc(-c4ccccc4)c3c2)cc1` the figure was 1 to 10 µM; with `O=C(NCc1cccnc1)c1ccc2[nH]nc(-c3ccc(F)cc3)c2c1`, 1 to 10 µM. The figure for `O=C(O)c1cccc(C(=O)Nc2ccc3[nH]nc(-c4ccc(F)cc4)c3c2)c1` is 1 to 10 µM.

Turning to `O=C(Nc1ccc2[nH]nc(-c3ccccc3)c2c1)c1ccccc1O`, the 50% inhibitory concentration (IC50) fell in the range of 1 to 10 µM.

Take `O=C(NCCCN1CCOCC1)c1ccc2[nH]nc(-c3ccc(F)cc3)c2c1`: the IC50 is not above 10 µM. The figure for `O=C(Nc1ccc(F)cc1)Nc1ccc2[nH]nc(-c3ccc(F)cc3)c2c1` is not above 10 µM. The figure for `Cc1n[nH]c(-c2ccc3[nH]nc(-c4ccc(F)cc4)c3c2)n1` is 1 to 10 µM; for `O=C(Nc1ccc2[nH]nc(-c3ccccc3)c2c1)c1ccccn1` it is 1 to 10 µM; for `CC(C)(C)OC(=O)CCNC(=O)c1ccc2[nH]nc(-c3ccc(F)cc3)c2c1` it is not above 10 µM.

For the molecule `CC(C)(C)OC(=O)CNC(=O)c1ccc2[nH]nc(-c3ccc(F)cc3)c2c1`, the concentration for half-maximal inhibition (IC50) was 1 to 10 µM. On to `O=C(Nc1ccc2[nH]nc(-c3ccc(F)cc3)c2c1)C1CC1`, for which the IC50 is not above 10 µM.

Take `O=C(Nc1nnn[nH]1)c1ccc2[nH]nc(-c3ccc(F)cc3)c2c1`: the half-inhibitory concentration (IC50) lay in the range of 1 to 10 µM.

Turning to `O=C(Nc1ccc2[nH]nc(-c3ccc(F)cc3)c2c1)c1ccncc1`, the concentration for half-maximal inhibition (IC50) lay in the range of 1 to 10 µM. The figure for `O=C(Nc1cccc(O)c1)c1ccc2[nH]nc(-c3ccc(F)cc3)c2c1` is 1 to 10 µM; for `CNC(=O)c1ccc(C(=O)Nc2ccc3[nH]nc(-c4ccc(F)cc4)c3c2)cc1` it is 1 to 10 µM. As for `O=C(Nc1ccc2[nH]nc(-c3ccc(F)cc3)c2c1)c1ccccc1`, the concentration for half-maximal inhibition (IC50) fell in the range of 1 to 10 µM. With `Fc1ccc(-c2n[nH]c3ccc(-c4nn[nH]n4)cc23)cc1` the figure was 0.5 to 10 µM; with `Nc1ccc(C(=O)Nc2ccc3[nH]nc(-c4ccccc4)c3c2)cc1`, 1 to 10 µM; with `O=[N+]([O-])c1ccc2[nH]nc(-c3cccc4ccccc34)c2c1`, not above 10 µM.

Regarding `CCOc1cccc(-c2n[nH]c3ccc([N+](=O)[O-])cc23)c1`, the IC50 was not above 10 µM. Turning to `O=C(Nc1ccc2[nH]nc(-c3ccc(F)cc3)c2c1)c1ccco1`, the IC50 was in the range of 1 to 10 µM.

`O=C(O)c1ccc(CNC(=O)c2ccc3[nH]nc(-c4ccc(F)cc4)c3c2)cc1`: the IC50 fell in the range of 1 to 10 µM. The figure for `Fc1ccc(-c2n[nH]c3ccc(NCc4ccncc4)cc23)cc1` is 1 to 10 µM; for `O=C(O)CCCCNC(=O)c1ccc2[nH]nc(-c3ccc(F)cc3)c2c1` it is 1 to 10 µM; for `NC(=O)c1ccc2[nH]nc(-c3ccc(F)cc3)c2c1` it is 1 to 10 µM. Regarding `CC(=O)Nc1ccc2[nH]nc(-c3ccccc3)c2c1`, the IC50 fell in the range of 1 to 10 µM. With `O=C(Nc1ccc2[nH]nc(-c3ccc(F)cc3)c2c1)N1CCOCC1` the figure was not above 10 µM.

On to `O=C(NOCc1ccccc1)c1ccc2[nH]nc(-c3ccc(F)cc3)c2c1`, for which the IC50 was not above 10 µM. With `NC(=O)CCNC(=O)c1ccc2[nH]nc(-c3ccc(F)cc3)c2c1` the figure was 1 to 10 µM. Take `O=C(O)C1CCN(C(=O)c2ccc3[nH]nc(-c4ccc(F)cc4)c3c2)CC1`: the IC50 is not above 10 µM.

For the molecule `c1ccc(COc2ccc3[nH]nc(-c4ccccc4)c3c2)cc1`, the IC50 is not above 10 µM.

As to `CC(O)CNC(=O)c1ccc2[nH]nc(-c3ccc(F)cc3)c2c1` (stereo not drawn), the IC50 lay within 1 to 10 µM. With `NNC(=O)c1ccc2[nH]nc(-c3ccc(F)cc3)c2c1` the figure was 1 to 10 µM; with `O=C(O)c1ccc(NC(=O)c2ccc3[nH]nc(-c4ccc(F)cc4)c3c2)cc1`, 1 to 10 µM. The figure for `CCNc1ccc2[nH]nc(-c3ccc(F)cc3)c2c1` is not above 10 µM. Regarding `COc1ccc(-c2n[nH]c3ccc([N+](=O)[O-])cc23)cc1OC`, the IC50 was not above 10 µM.

Regarding `O=[N+]([O-])c1ccc2[nH]nc(-c3cccc(C(F)(F)F)c3)c2c1`, the IC50 was not above 10 µM.

Consider `O=C(Nc1cccc([N+](=O)[O-])c1)c1ccc2[nH]nc(-c3ccc(F)cc3)c2c1`, for which the IC50 lay in the range of 1 to 10 µM.

With `O=C(Nc1ccccn1)c1ccc2[nH]nc(-c3ccc(F)cc3)c2c1`, the IC50 was not above 10 µM. With `Cn1cncc1CCNC(=O)c1ccc2[nH]nc(-c3ccc(F)cc3)c2c1` the figure was 1 to 10 µM; with `CCOC(=O)C1CCN(C(=O)c2ccc3[nH]nc(-c4ccc(F)cc4)c3c2)CC1`, not above 10 µM; with `COC(=O)c1ccc(NC(=O)c2ccc3[nH]nc(-c4ccc(F)cc4)c3c2)cc1`, not above 10 µM. The figure for `O=C(NCC1CCCC[C@H]1O)c1ccc2[nH]nc(-c3ccc(F)cc3)c2c1` (stereo partly drawn) is 1 to 10 µM; for `O=C(O)c1ccc(C(=O)Nc2ccc3[nH]nc(-c4ccc(F)cc4)c3c2)cc1` it is 1 to 10 µM. With `O=C(O)CCNC(=O)c1ccc2[nH]nc(-c3ccc(F)cc3)c2c1`, the IC50 was 1 to 10 µM.

With `O=C(Nc1ccc2[nH]nc(-c3ccc(F)cc3)c2c1)c1ccccn1`, the IC50 lay within 1 to 10 µM.

With `O=[N+]([O-])c1ccc2[nH]nc(-c3ccoc3)c2c1`, the IC50 was not above 10 µM. Regarding `COC(=O)c1cccc(C(=O)Nc2ccc3[nH]nc(-c4ccc(F)cc4)c3c2)c1`, the IC50 is not above 10 µM. The figure for `Nc1ccc2[nH]nc(-c3ccc(F)cc3)c2c1` is not above 10 µM; for `Cc1ccc2[nH]nc(-c3ccccc3)c2c1` it is not above 10 µM.

With `O=C(O)c1ccc(C(=O)Nc2ccc3[nH]nc(-c4ccncc4)c3c2)cc1`, the IC50 fell in the range of 1 to 10 µM.

Take `O=C(Nc1ccc2[nH]nc(-c3ccccc3)c2c1)c1ccccc1`: the IC50 fell in the range of 1 to 10 µM. In the case of `O=C(O)CNC(=O)c1ccc2[nH]nc(-c3ccc(F)cc3)c2c1`, the IC50 lay within 1 to 10 µM. Regarding `O=[N+]([O-])c1ccc2[nH]nc(-c3ccc4ccccc4c3)c2c1`, the IC50 is not above 10 µM.

For the molecule `O=C(Nc1ccc2[nH]nc(-c3ccc(F)cc3)c2c1)c1cccnc1`, the IC50 lay in the range of 1 to 10 µM. The figure for `Fc1ccc(-c2n[nH]c3ccc(-c4ncc[nH]4)cc23)cc1` is 1 to 10 µM. The figure for `COc1ccc(-c2n[nH]c3ccc([N+](=O)[O-])cc23)cc1` is not above 10 µM; for `NCCNC(=O)c1ccc2[nH]nc(-c3ccc(F)cc3)c2c1` it is not above 10 µM. The figure for `Nc1cccc(NC(=O)c2ccc3[nH]nc(-c4ccc(F)cc4)c3c2)c1` is 1 to 10 µM; for `Fc1ccc(-c2n[nH]c3ccc(-c4nnc[nH]4)cc23)cc1` it is 0.5 to 10 µM. `Nc1cccc(C(=O)Nc2ccc3[nH]nc(-c4ccccc4)c3c2)c1`: the half-maximal inhibitory concentration (IC50) is 1 to 10 µM.

In the case of `NC(=O)c1ccc(C(=O)Nc2ccc3[nH]nc(-c4ccc(F)cc4)c3c2)cc1`, the IC50 lay in the range of 1 to 10 µM.

In the case of `O=C(O)c1ccc2[nH]nc(-c3ccc(F)cc3)c2c1`, the IC50 lay in the range of 1 to 10 µM.

`NCCCNC(=O)c1ccc2[nH]nc(-c3ccc(F)cc3)c2c1`: the IC50 lay within 1 to 10 µM. With `O=[N+]([O-])c1ccc2[nH]nc(-c3ccccc3)c2c1` the figure was not above 10 µM.
